Reference: patent publication US20040204577A1, “Novel peptide-forming enzyme gene” (Ajinomoto Co., Inc., priority 2003, published 2004)
Where a SMILES comes first, the peptide text is derived from it. [ ]: non-standard residue; d: D form. The star is where a group is joined. Boc = CC(C)(C)OC(=O)*; Aib = CC(C)(N)C(=O)O; OtBu = CC(C)(C)O*; tBu = CC(C)(C)*

tested on: peptide-forming enzyme (Mono S fraction enzyme); experiment: Enzyme substrate specificity (1)-(10), (13), (14): peptide production; assay type: biochemical, Empedobacter brevis; set-up: key to Produced peptide (oligopeptide): +: those for which production was confirmed but which were unable to be quantified due to the absence of a standard; a trace amount; key to Formed peptide: +: those peptides for which production was confirmed but which were unable to be quantified due to the absence of a standard; a trace amount; details: L or D amino acid methyl ester hydrochloride 100 mM, L or D amino acid 150 mM, pH 9.0, 25° C., 3 hours
Protocol: Ester specificity was examined in the case of using L-amino acid ester for the carboxy component. 2 μl of the same enzyme fraction as used in Example 5 was added to 100 μl of 100 mM borate buffer (pH 9.0) containing the carboxy components indicated in Table 4 at 100 mM, 200 mM L-glutamine and 10 mM EDTA, and allowed to react at 25° C. for 2 hours. HCl represents hydrochloride in Table 4.
Peptide production was examined in the case of using L-alanine methyl ester for the carboxy component and using various L-amino acids for the amine component.
Peptide production was examined in the case of using various types of L-amino acid methyl esters for the carboxy component and using L-glutamine for the amine component. 2 μl of the same enzyme fraction as used in Example 5 was added to 100 μl of 100 mM borate buffer (pH 9.0) containing the L-amino acid methyl ester hydrochloride salts (AA-OMe.HCl) shown in Table 6 at 100 mM, 150 mM L-glutamine and 10 mM EDTA, and allowed to react at 25° C. for 3 hours. […] Furthermore, Tween-80 was added to the reaction system to a final concentration of 0.1% in the case of using L-Trp-OMe and L-Tyr-OMe.
Peptide production was examined in the case of using various L-amino acid methyl esters for the carboxy component and various L-amino acids for the amine component. 2 μl of the same enzyme fraction as used in Example 5 was added to 100 μl of 100 mM borate buffer (pH 9.0) containing the L-amino acid methyl ester hydrochloride salts (AA-OMe.HCl) shown in Table 7 at 100 mM, the L-amino acids shown in Table 7 at 150 mM and 10 mM EDTA, and allowed to react at 25° C. for 3 hours. The “tr” indicates a trace amount. Furthermore, Tween-80 was added to the reaction system to a final concentration of 0.1% in the case of using L-Trp-OMe.
Peptide production was examined in the case of using the L or D forms of various amino acid methyl esters for the carboxy component, and the L or D forms of various amino acids for the amine component. 2 μl of the same enzyme fraction as used in Example 5 was added to 100 μl of 100 mM borate buffer (pH 9.0) containing the various amino acid methyl ester hydrochloride salts (AA-OMe HCl) shown in Table 8 at 100 mM, the various amino acids shown in Table 8 at 150 mM and 10 mM EDTA, and allowed to react at 25° C. for 3 hours. The “tr” indicates a trace amount.
Peptide production was examined using various L-amino acid amides for the carboxy component, and various L-amino acids for the amine component. 2 μl of the same enzyme fraction as that used in Example 5 was added to 100 μl of 100 mM borate buffer (pH 9.0) containing the L-amino acid amide hydrochloride salt (M-NH2.HCl) shown in Table 9 at 100 mM, the L-amino acids shown in Table 9 at 150 mM and 10 mM EDTA, and allowed to react at 25° C. for 3 hours.
Peptide production was examined in the case of using various L-alanine methyl esters for the carboxy component and C-protected L-amino acids for the amine component. 2 μl of the same enzyme fraction as used in Example 5 was added to 100 μl of 100 mM borate buffer (pH 9.0) containing the L-alanine methyl ester hydrochloride hydrochloride salt (Ala-OMe.HCl) shown in Table 10 at 100 mM, the L-amino acid amide hydrochloride salts shown in Table 10 at 150 mM and 10 mM EDTA, and allowed to react at 25° C. for 3 hours.
Peptide production was examined in the case of using various amino acid methyl esters for the carboxy component and methylamine for the amine component. 2 μl of the same enzyme fraction as used in Example 5 was added to 100 μl of 100 mM borate buffer (pH 9.0) containing the amino acid methyl ester hydrochloride salt (M-OMe.HCl) shown in Table 11 at 100 mM, the methylamine shown in Table 11 at 150 mM and 10 mM EDTA, and allowed to react at 25° C. for 3 hours.
Peptide production was examined in the case of using […] for the carboxy component or β-amino acid for the amine component.

First: CSCC[C@@H](N)C(=O)N[C@H](CO)C(=O)O [D-Met-D-Ser] (H-[dM]-[dS]-OH)
Second: CSCC[C@@H](N)C(=O)N[C@@H](CO)C(=O)O [D-Met-L-Ser] (H-[dM]-Ser-OH)
The Formed peptide of the first is 1.9-fold lower: 2.7 mM for the first, 5.1 mM for the second.

Going from `CC(C)[C@@H](N)C(=O)N[C@H](CO)C(=O)O` [D-Val-D-Ser] (H-[dV]-[dS]-OH) to `CC(C)[C@H](N)C(=O)N[C@H](CO)C(=O)O` [L-Val-D-Ser] (H-Val-[dS]-OH), the Formed peptide rises from 0.5 mM to 1.4 mM (2.8-fold).

First: C[C@H](N)C(=O)N[C@H](CCC(N)=O)C(=O)O [L-Ala-D-Gln] (H-Ala-[dQ]-OH)
Second: C[C@@H](N)C(=O)N[C@@H](CCC(N)=O)C(=O)O [D-Ala-L-Gln] (H-[dA]-Gln-OH)
The Formed peptide of the first is 230-fold lower: 0.3 mM for the first, 69.3 mM for the second.

First: N[C@@H](CO)C(=O)N[C@H](CO)C(=O)O [L-Ser-D-Ser] (H-Ser-[dS]-OH)
Second: N[C@H](CO)C(=O)N[C@H](CO)C(=O)O [D-Ser-D-Ser] (H-[dS]-[dS]-OH)
The Formed peptide of the first is 6.5-fold higher: 16.2 mM for the first, 2.5 mM for the second.

`C[C@H](O)[C@@H](N)C(=O)N[C@H](CO)C(=O)O` [D-Thr-D-Ser] (H-[dT]-[dS]-OH) and `C[C@H](O)[C@@H](N)C(=O)N[C@@H](CO)C(=O)O` [D-Thr-L-Ser] (H-[dT]-Ser-OH) are within 1.5-fold of each other in Formed peptide: 1.1 mM for the first, 1.0 mM for the second.

Going from `CSCC[C@H](N)C(=O)N[C@H](CO)C(=O)O` [L-Met-D-Ser] (H-Met-[dS]-OH) to `CC(C)[C@@H](N)C(=O)N[C@@H](CO)C(=O)O` [D-Val-L-Ser] (H-[dV]-Ser-OH), the Formed peptide falls from 1.9 mM to 0.6 mM (3.2-fold).

`C[C@@H](N)C(=O)N[C@H](CCC(N)=O)C(=O)O` [D-Ala-D-Gln] (H-[dA]-[dQ]-OH) was tested, and the Formed peptide was “tr”.

same assay, conditions: L-amino acid amide hydrochloride as carboxy component 100 mM, L-amino acid 150 mM, pH 9.0, 25° C., 3 hours

`N[C@@H](Cc1ccccc1)C(=O)N[C@@H](CO)C(=O)O` [L-Phe-L-Ser] (H-Phe-Ser-OH) was tested, and the Formed peptide was 0.6 mM.

same assay, conditions: L-amino acid ester 100 mM, peptide (amine component) 150 mM, pH 9.0, 25° C., 3 hours

Work on Gly-Gly-L-Gln yielded a Produced peptide of 7.2 mM.

same assay, conditions: L-amino acid methyl ester hydrochloride 100 mM, 150 mM L-glutamine, pH 9.0, 25° C., 3 hours

For `NC(=O)CC[C@H](NC(=O)CC[C@H](N)C(=O)O)C(=O)O` [γ-L-Glu-L-Gln], the Formed peptide was “+”.
With `NC(=O)CCC(NC(=O)C(N)Cc1c[nH]c2ccccc12)C(=O)O` [L-Trp-L-Gln] (H-Trp-Gln-OH; configuration not given here) the Formed peptide was “+”.
In the case of `NC(=O)CC[C@H](NC(=O)[C@@H](N)CC(N)=O)C(=O)O` [L-Asn-L-Gln] (H-Asn-Gln-OH), the Formed peptide is reported as “+”.
`NCCCC[C@H](N)C(=O)N[C@@H](CCC(N)=O)C(=O)O` [L-Lys-L-Gln] (H-Lys-Gln-OH) was tested, and the Formed peptide was “+”.
With `NC(=O)CC[C@H](NC(=O)[C@@H](N)CCC(=O)O)C(=O)O` [α-L-Glu-L-Gln] (H-Glu-Gln-OH) the Formed peptide was “+”.
With `CC(C)C[C@H](N)C(=O)N[C@@H](CCC(N)=O)C(=O)O` [L-Leu-L-Gln] (H-Leu-Gln-OH) the Formed peptide was “+”.
With `NC(=O)CC[C@H](NC(=O)C[C@H](N)C(=O)O)C(=O)O` [β-L-Asp-L-Gln] the Formed peptide was “tr”.

same assay, conditions: L-amino acid methyl ester hydrochloride 100 mM, L-amino acid 150 mM, pH 9.0, 25° C., 3 hours

First: CSCC[C@H](NC(=O)[C@@H](N)Cc1cnc[nH]1)C(=O)O [L-His-L-Met] (H-His-Met-OH)
Second: CSCC[C@H](NC(=O)[C@@H](N)CC(C)C)C(=O)O [L-Leu-L-] (H-Leu-Met-OH)
The Formed peptide of the first is 1.9-fold lower: 6.5 mM for the first, 12.2 mM for the second.

Going from `CSCC[C@H](NC(=O)[C@@H](N)CCCCN)C(=O)O` [L-Lys-L-Met] to `CSCC[C@H](NC(=O)[C@@H](N)Cc1c[nH]c2ccccc12)C(=O)O` [L-Trp-L-Met] (H-Trp-Met-OH), the Formed peptide falls from 6.8 mM to 4.1 mM (1.7-fold).

Going from `NC(=O)C[C@H](N)C(=O)N[C@@H](CCC(=O)O)C(=O)O` [L-Asn-L-] (H-Asn-Glu-OH) to `C[C@@H](O)[C@H](N)C(=O)N[C@@H](CO)C(=O)O` [L-Thr-L-Ser] (H-Thr-Ser-OH), the Formed peptide rises from 10.2 mM to 58.2 mM (5.7-fold).

For `NCC(=O)N[C@@H](CS)C(=O)O` [Gly-L-CySH] (H-Gly-Cys-OH), the Formed peptide was 45.6 mM.

same assay, conditions: amount of enzyme 0.1 unit, pH 9.0, 25° C., 3 hours

In the case of L-Ala-Gly-L-Phe, the “Produced peptide (oligopeptide)” value is reported as “+”.

same assay, conditions: amount of enzyme 0.2 unit, pH 9.0, 25° C., 3 hours

L-Ala-L-Phe-L-Met was tested, and the “Produced peptide (oligopeptide)” value was “+”.

same assay, conditions: amount of enzyme 1.0 unit, pH 9.0, 25° C., 3 hours

Going from Gly-Phe-Met to L-Tyr-Gly-Gly-L-Phe-L-Met, the “Produced peptide (oligopeptide)” value falls from 13.3 mM to 2.7 mM (4.9-fold).

same assay, conditions: carboxy component 40 mM, amine component 40 mM, 0.1 unit enzyme, 25° C., reaction time 3 hr

`C[C@H](N)C(=O)N[C@@H](Cc1ccc([N+](=O)[O-])cc1)C(=O)O` [H-Ala-p-NO2-Phe-OH] and `C[C@H](N)C(=O)N[C@@H](Cc1ccc(Cl)cc1)C(=O)O` [H-Ala-Cl-F-Phe-OH] are within 1.5-fold of each other in Produced peptide: 27.5 mM for the first, 20.8 mM for the second.

same assay, conditions: carboxy component 50 mM, amine component 50 mM, 0.1 unit enzyme, 25° C., reaction time 3 hr

Compound `C[C@H](N)C(=O)N[C@@H](Cc1ccc(F)cc1)C(=O)O` [H-Ala-p-F-Phe-OH] has a Produced peptide of 21.9 mM.

same assay, conditions: carboxy component 100 mM, 200 mM L-glutamine, pH 9.0, 25° C., 2 hours

`COC(=O)[C@H](C)N.Cl` [L-Alanine methyl ester.HCl, L-alanine methyl ester hydrochloride] and `CCOC(=O)[C@H](C)N.Cl` [L-Alanine ethyl ester.HCl] are within 1.5-fold of each other in L-Ala-L-Gln formed: 84.3 mM for the first, 91.5 mM for the second.

For `C[C@H](N)C(=O)OC(C)(C)C.Cl` [L-Alanine-t-butyl ester.HCl], the L-Ala-L-Gln formed was 7.5 mM.

same assay, conditions: carboxy component 100 mM, amine component 150 mM, 0.1 unit enzyme, 25° C., reaction time 2 hr

`C[C@H](N)C(=O)N[C@@H](CC(=O)OC(C)(C)C)C(=O)O` [H-Ala-Asp(OtBu)-OH] (H-Ala-Asp(OtBu)-OH) and `C[C@H](N)C(=O)N[C@@H](COC(C)(C)C)C(=O)O` [H-Ala-Ser(tBu)-OH] (H-Ala-Ser(tBu)-OH) are within 1.5-fold of each other in Produced peptide: 62.6 mM for the first, 48.8 mM for the second.

Compared with `CC(C)(C)OC(=O)C[C@H](N)C(=O)N[C@@H](CCC(N)=O)C(=O)O` [H-Asp(OtBu)-Gln-OH] (H-Asp(OtBu)-Gln-OH), `C[C@H](N)C(=O)N[C@@H](CCCCNC(=O)OC(C)(C)C)C(=O)O` [H-Ala-Lys(Boc)-OH] (H-Ala-Lys(Boc)-OH) is 57-fold higher in Produced peptide: 0.9 mM for the first, 51.0 mM for the second.

same assay, conditions: carboxy component 100 mM, amine component 150 mM, 0.1 unit enzyme, 25° C., reaction time 3 hr

`CC(C)(N)C(=O)N[C@@H](Cc1ccccc1)C(=O)O` [H-Aib-Phe-OH] (H-[Aib]-Phe-OH) and `CC(C)(N)C(=O)N[C@@H](CCC(N)=O)C(=O)O` [H-Aib-H-Gln-OH] (H-[Aib]-Gln-OH) are within 1.5-fold of each other in Produced peptide: 17.2 mM for the first, 18.8 mM for the second.

same assay, conditions: β-amino acid ester or β-amino acid; carboxy component 100 mM, amine component 150 mM, pH 9.0, 25° C., 3 hours

First: NCC(=O)NCCC(=O)O [Gly-β-Ala]
Second: NCCC(=O)NCCC(=O)O [β-Ala-β-Ala]
The Formed peptide of the first is 11-fold higher: 2.2 mM for the first, 0.2 mM for the second.

`NCCC(=O)NC(CO)C(=O)O` [β-Ala-L-Ser] and `C[C@@H](O)[C@H](N)C(=O)NCCC(=O)O` [Thr-β-Ala] are the same in Formed peptide: 3.2 mM for the first, 3.2 mM for the second.

First: NCC(=O)NC(CC(=O)O)c1ccccc1 (stereo not drawn) [Gly-β-Phe]
Second: C[C@@H](O)[C@H](N)C(=O)NC(CC(=O)O)c1ccccc1 (stereo partly drawn) [Thr-β-Phe]
The Formed peptide of the first is 3.5-fold lower: 0.4 mM for the first, 1.4 mM for the second.

`C[C@H](NC(=O)CCN)C(=O)O` [β-Ala-L-α-Ala] was tested, and the Formed peptide was “tr”.
